{"source": "paper PMC8783508", "about": "“A novel D-amino acid peptide with therapeutic potential (ISAD1) inhibits aggregation of neurotoxic disease-relevant mutant Tau and prevents Tau toxicity in vitro” (Alzheimer's Research & Therapy, 2022)", "key": {"[1]": {"system": "N2a cells expressing Tau^RDΔK", "assay": "Uptake of FAM-labeled D-peptides by confocal microscopy", "assay_type": "cell-based", "settings": "25 μM FAM-labeled peptide, 24 h, fixed cells", "description": "In order to become potentially suitable for therapeutic development, the D-peptides should be internalized by neurons. To test this, 25 μM FAM-labeled ISAD1 or its inversed form was added to cells that express pro-aggregant mutant Tau^RDΔK for 24 h followed by cell fixation.\nFig. 7 Uptake of fluorescence-labeled D-peptides analyzed by confocal microscopy. 25 μM FAM-labeled peptides (ISAD1 and ISArev) were incubated with N2a cells expressing Tau^RDΔK for 24 h. The uptake of D-peptides was analyzed by confocal microscopy. As shown in the representative images, the peptides are mainly localized in the cytoplasm (A1, B1 Draq5 shown as red; A2 ISAD1-FAM, B2 ISAD1rev-FAM; A3, B3 merged images)"}, "N2a-Tau^RDΔK cells": {"system": "N2a-Tau^RDΔK cells", "assay": "MTT cytotoxicity of the peptides alone", "assay_type": "cell-based", "settings": "25, 50, 100, 250 μM peptide, 24 h, n = 3", "description": "Cell viability was analyzed in accordance with the manufacturer’s protocol (Roche Diagnostics, Mannheim, Germany; cell proliferation kit II (MTT)). This assay is based on the cleavage of the yellow tetrazolium salt MTT into purple formazan dye by metabolic active cells. The color changes only in viable cells and can be directly quantified using a scanning multiwell spectrophotometer. In all experiments, the cells were grown as described previously. The cells (25,000 cells/well or 80% confluence) were plated on poly D-lysine-coated 96-well plates (Greiner Bio-One GmbH, Frickenhausen, Germany) for stronger attachment from overnight to 24 h at 37 °C. Fibrillized Tau^RDΔK was generated by incubating 200 μM Tau^RDΔK in BES buffer at 37 °C for 24 h in the presence of 2 mM D-peptides (Tau^RDΔK:peptide = 1:10). Successful fibrillization was verified using ThS (5 μM Tau^RDΔK, 10 μM ThS) measurement. The aggregated Tau^RDΔK (10 μM final concentration), Tau^RDΔK (10 μM) + peptide (100 μM) samples (ISAD1 and ISAD1rev), buffer only (negative control, set to 100% cell viability), and TritonX-100 (2%, cytotoxic agent, positive control) were incubated on N2a-Tau^RDΔK cells (100 μl solution) for another 24 h. The cell viability was measured in accordance with the manufacturer’s protocol.\nA MTT-based cytotoxicity assay in the presence of ISAD1 and ISAD1rev peptides. […]"}, "[2]": {"system": "Tau^FLΔK, Tau^FL-A152T, Tau^FL-P301L", "assay": "Pelleting assay and western blot, full-length Tau mutants", "assay_type": "biochemical, human", "settings": "10 µM Tau mutant, 100 µM peptide, 24 hours, K9JA western blot", "description": "After the ThS assay (end time point, 24 h), 70 μl of each sample (pooled together from 2 wells) was centrifuged in a Beckmann coulter (Optima Max Ultra Centrifuge, TLA 100.3 rotor) at 61,000 rpm for 60 min at 4 °C. After centrifugation, the supernatant was separated from the pellet. Then, the pellet was dissolved in BES buffer in an equal volume as the supernatant. For the following western blot, 12-μl samples were mixed with 3-μl SDS-sample buffer (5x), heated for 5 min at 95 °C, and loaded onto a 8–16% SDS tris-glycine-gel (BioRad, Feldkirchen, Germany). The proteins were transferred to a polyvinylidene fluoride (PVDF) membrane. After the transfer, the membrane was blocked in 5% non-fat dry milk. After washing the membrane three times for 10 min with TBST, the primary pan-Tau K9JA antibody (1:5000; Agilent, Waldbronn, Germany) was incubated for 1 h at RT with gentle agitation, followed by again 3-times washing with TBST. […] The quantification of intensities was performed using ImageJ.\nS-Figure 4-6: ISAD1 induces the formation of non-fibrillar large aggregates of Tau mutants. […] (C) The intensity of protein amount in supernatant and pellet was quantified by ImageJ for different Tau mutants such as Tau^FLΔK (Sup. Fig. 2C), Tau^FL-^A152T (Sup. Fig. 3C) or Tau^FL^-P^301L (Sup. Fig. 4C)."}}, "note": "Non-standard residues stand in square brackets, D forms with d. Residues, ends and D or L forms follow the SMILES beside them.", "data": [{"compound": "CC(C)C[C@@H](NC(=O)[C@@H](CO)NC(=O)[C@@H](CC(C)C)NC(=O)[C@H](NC(=O)[C@@H](CC(=O)O)NC(=O)[C@@H](C)NC(=O)[C@@H](C)NC(=O)[C@H](N)CO)[C@H](C)O)C(=O)N[C@H](CCCCN)C(=O)N[C@H](Cc1ccccc1)C(=O)N[C@@H](C(=O)N[C@H](CO)C(=O)O)C(C)C", "note": "[ISAD1rev] (H-[dS][dA][dA][dD][dT][dL][dS][dL][dK][dF][dV][dS]-OH; N-terminus and C-terminus assumed)", "values": [{"measurement": "Intracellular localisation", "setting": "[1]", "value": "accumulated in the cytosol but were excluded from the nucleus"}, {"measurement": "Uptake by cells", "setting": "[1]", "value": "almost all cells took up the D-peptides"}, {"measurement": "Cytotoxicity, MTT", "setting": "N2a-Tau^RDΔK cells", "value": "do not induce toxic effects"}, {"measurement": "Distribution of full-length Tau mutants between pellet and supernatant", "setting": "[2]", "value": "more fractions in the supernatant"}]}]}
